Drawing on ChEMBL document CHEMBL1201862, “PubChem BioAssay data set” (2004), this text covers EC50, AC50 and IC50 for three compounds.

Activity calls are given as the source filed them.

Assay [1] addresses G-protein coupled receptor 55 (Homo sapiens, UniProt Q9Y2T6). In words: GPR55 agonists via beta-arrestin recruitment, primary screen, imaging, U2OS cells, beta-arrestin-GFP redistribution (AID 1961). Format: functional. On the technique in general: Activated receptors often draw arrestin, which recruitment assays turn into a signal.
Assay [2] has as its target T1, Heat shock factor protein 1 (Mus musculus, UniProt P38532).
T1 sequence (P38532 whole entry): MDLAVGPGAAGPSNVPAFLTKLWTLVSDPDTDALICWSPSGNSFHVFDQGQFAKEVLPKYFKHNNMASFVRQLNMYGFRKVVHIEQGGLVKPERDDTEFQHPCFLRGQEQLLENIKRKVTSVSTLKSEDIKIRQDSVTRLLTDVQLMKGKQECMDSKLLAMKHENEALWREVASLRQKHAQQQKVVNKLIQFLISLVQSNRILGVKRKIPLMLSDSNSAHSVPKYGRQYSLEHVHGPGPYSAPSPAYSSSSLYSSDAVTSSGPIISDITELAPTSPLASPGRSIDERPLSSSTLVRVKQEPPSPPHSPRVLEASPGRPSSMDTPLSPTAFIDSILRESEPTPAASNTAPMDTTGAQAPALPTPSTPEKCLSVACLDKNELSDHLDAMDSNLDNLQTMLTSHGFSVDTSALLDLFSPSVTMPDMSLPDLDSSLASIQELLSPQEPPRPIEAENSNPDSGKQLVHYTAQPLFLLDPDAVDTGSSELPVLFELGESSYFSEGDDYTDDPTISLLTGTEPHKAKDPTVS
In words: inhibition of MG132-induced HSE-luciferase signal, confirmation, cell-based, NIH3T3, luminescence, dose retest (AID 2382).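 Also: NIH3T3 fibroblasts with HSF1-driven luciferase reporter stressed by proteasome inhibitor MG132; luminescence from HSF1-driven luciferase expression after 8 hours of MG132 stress.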 The class given is functional.

A short description of assay [3]: cytotoxicity toward NIH3T3 fibroblasts, dose response, counter-screen, cell-based, ATP luminescence, mouse fibroblasts (AID 2010).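 Also: cells exposed to compound for about 90 hours before reading.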 Format: functional. (In general: A counterscreen serves to expose hits that act by an unwanted route or on another target.)
A short description of assay [4]: inhibitors of intracellular T. cruzi replication, confirmation, NIH3T3 host cells, beta-gal luminescence (AID 2044).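 Also: intracellular parasites grown in NIH/3T3 mouse fibroblasts as host cells; luminescent beta-galactosidase reporter signal from transgenic T. cruzi replicating inside host cells; inhibitors lower the luminescence signal.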 The class given is functional, cell-based.
The target of assay [5] is Microphthalmia-associated transcription factor (Homo sapiens, UniProt O75030). In words: TRPM1 promoter luciferase signal decrease, dose response, MITF inhibitor project, cell-based, SK-MEL-5, cherry-picked, set 3 (AID 493073). Format: functional.
Assay [6] in a line: insulin promoter down-regulators in MIN6 cells, imaging, high-content screening, mouse beta cells (AID 1628). The class given is functional.
A short description of assay [7]: cytotoxicity in MIN6 insulinoma cells, dose response, cytotoxicity control, cell-based, mouse insulinoma (AID 2122).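 Also: confirmatory high-throughput counterscreen run to flag cytotoxic compounds; mouse MIN-6 beta cells carrying an insulin promoter eGFP reporter.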 The class given is functional.
The nature of assay [8]: Luminescence Cell-Based Dose Retest to Confirm Inhibitors of Cancer Stem Cells. [Related pubchem assays (depositor defined):AID2717, AID2721]. The class given is functional. The conditions noted are these: Homo sapiens.

Chain of Microphthalmia-associated transcription factor (O75030 whole entry): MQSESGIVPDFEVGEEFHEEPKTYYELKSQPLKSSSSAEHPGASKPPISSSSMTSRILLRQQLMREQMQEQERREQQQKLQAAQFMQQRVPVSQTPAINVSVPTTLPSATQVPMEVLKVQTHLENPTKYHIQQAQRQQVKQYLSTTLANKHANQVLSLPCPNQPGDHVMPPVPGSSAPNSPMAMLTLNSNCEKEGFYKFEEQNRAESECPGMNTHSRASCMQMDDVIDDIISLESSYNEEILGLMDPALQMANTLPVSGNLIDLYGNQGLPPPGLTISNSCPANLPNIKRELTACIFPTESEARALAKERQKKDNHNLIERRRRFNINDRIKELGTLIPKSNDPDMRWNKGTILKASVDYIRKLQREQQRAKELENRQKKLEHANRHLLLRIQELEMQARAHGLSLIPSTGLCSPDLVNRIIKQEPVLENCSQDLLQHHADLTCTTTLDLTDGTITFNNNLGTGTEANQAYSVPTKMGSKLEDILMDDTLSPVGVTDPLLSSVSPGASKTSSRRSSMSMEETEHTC
Chain of G-protein coupled receptor 55 (Q9Y2T6 whole entry): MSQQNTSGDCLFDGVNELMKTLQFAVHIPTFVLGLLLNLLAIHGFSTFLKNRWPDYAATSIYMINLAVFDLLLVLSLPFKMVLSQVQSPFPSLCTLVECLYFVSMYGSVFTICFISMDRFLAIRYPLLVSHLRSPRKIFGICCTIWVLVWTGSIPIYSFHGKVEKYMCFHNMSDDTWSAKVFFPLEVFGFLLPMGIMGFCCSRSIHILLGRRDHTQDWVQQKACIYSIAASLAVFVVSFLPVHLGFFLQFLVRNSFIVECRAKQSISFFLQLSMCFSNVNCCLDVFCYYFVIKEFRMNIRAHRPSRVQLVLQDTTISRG

As for `COc1ccc(C(=O)/C=C/C(=O)N(CC(=O)NC2CCCCC2)Cc2ccc(F)cc2)c(O)c1`, the EC50 (commonly the concentration giving half of the maximal effect) in assay [1] is > 32000 nM (inactive); in assay [2], 5290 nM (active); in assay [3], > 60000 nM (not active); in assay [4], 1610 nM (active). Further, the half-maximal activity concentration (AC50) (commonly the midpoint of the concentration-response curve, whichever way the signal moves) in assay [5] is 5450 nM (active).

For `COc1c(Cl)cc(Cl)cc1/C=C/C(=O)c1ccc(NC(=O)c2cccs2)cc1`, the IC50 (usually the midpoint of a concentration-inhibition curve) is 2560 nM (active) in assay [6] and 1350 nM (active) in assay [7]. Besides, the half-maximal activity concentration (AC50) in assay [8] is 1120 nM (active).

As to `CN1/C(=C/C(=S)NC(=O)C2(C)CC2(Cl)Cl)C(C)(C)c2ccccc21` (configuration not stated), the figures for the half-maximal inhibitory concentration (IC50) in assay [6] and in assay [7] were 2500 nM (active) and 851 nM (active), respectively. Moreover, the figures for the EC50 in assay [3] and in assay [4] were > 60000 nM (not active) and 3400 nM (active), respectively.
